# Reference: ChEMBL document CHEMBL4627322, “Design and synthesis of a novel class EGFR/HER2 dual inhibitors containing tricyclic oxazine fused quinazolines scaffold” (Bioorg Med Chem Lett, 2020)
# Experiments:
# [1] = tested on: NCI-N87; experiment: cells; assay type: functional, cell-based; details: Homo sapiens, NCI-N87, 72 h
# Description: Antiproliferative activity against human NCI-N87 cells overexpressing HER2 assessed as cell growth inhibition measured after 72 hrs by MTT assay
# [2] = tested on: NCI-H1975; experiment: cells; assay type: functional, cell-based; details: Homo sapiens, NCI-H1975, 72 h
# Description: Antiproliferative activity against human NCI-H1975 cells harboring EGFR L858R/T790M mutant assessed as cell growth inhibition measured after 72 hrs by MTT assay
# [3] = tested on: A-431; experiment: cells; assay type: functional, cell-based; details: Homo sapiens, A-431, 72 h
# Description: Antiproliferative activity against human A431 cells overexpressing EGFR assessed as cell growth inhibition measured after 72 hrs by MTT assay
# [4] = tested on: BT-474; experiment: cells; assay type: functional, cell-based; details: Homo sapiens, BT-474, 72 h
# Description: Antiproliferative activity against human BT474 cells overexpressing HER2 assessed as cell growth inhibition measured after 72 hrs by MTT assay
# [5] = tested on: Calu-3; experiment: cells; assay type: functional, cell-based; details: Homo sapiens, Calu-3, 72 h
# Description: Antiproliferative activity against human Calu3 cells overexpressing HER2 assessed as cell growth inhibition measured after 72 hrs by MTT assay
# [6] = target: T1, Epidermal growth factor receptor (Homo sapiens, UniProt P00533); assay type: cell-based, KB
# Description: Inhibition of EGFR in human KB cells assessed as reduction in EGF-stimulated EGFR phosphorylation preincubated for 1 hr followed by EGF stimulation and measured after 6 mins by ELISA
# [7] = target: T1, Epidermal growth factor receptor
# Description: Inhibition of EGFR (unknown origin) using FAM-labeled peptide as substrate preincubated for 10 mins followed by substrate addition measured after 40 mins in presence of ATP by caliper mobility shift assay
# [8] = target: Receptor tyrosine-protein kinase erbB-2 (Homo sapiens, UniProt P04626); experiment: Inhibition of HER2 (unknown origin) using FAM-labeled peptide as substrate preincubated for 10 mins followed by substrate addition measured after 40 mins in presence of ATP by caliper mobility shift assay
# [9] = tested on: NCI-N87; experiment: Potency index, ratio of lapatinib IC50 to test compound IC50 for antiproliferative activity against human NCI-N87 cells overexpressing HER2 assessed as cell growth inhibition measured after 72 hrs by MTT assay; assay type: functional
# [10] = tested on: A-431; experiment: Potency index, ratio of lapatinib IC50 to test compound IC50 for antiproliferative activity against human A431 cells overexpressing EGFR assessed as cell growth inhibition measured after 72 hrs by MTT assay; assay type: functional
# [11] = tested on: BT-474; experiment: Potency index, ratio of lapatinib IC50 to test compound IC50 for antiproliferative activity against human BT474 cells overexpressing HER2 assessed as cell growth inhibition measured after 72 hrs by MTT assay; assay type: functional
# [12] = tested on: Calu-3; experiment: Potency index, ratio of lapatinib IC50 to test compound IC50 for antiproliferative activity against human Calu3 cells overexpressing HER2 assessed as cell growth inhibition measured after 72 hrs by MTT assay; assay type: functional
# [13] = tested on: NCI-N87; experiment: Potency index, ratio of gefitinib IC50 to test compound IC50 for antiproliferative activity against human NCI-N87 cells overexpressing HER2 assessed as cell growth inhibition measured after 72 hrs by MTT assay; assay type: functional
# [14] = tested on: A-431; experiment: Potency index, ratio of gefitinib IC50 to test compound IC50 for antiproliferative activity against human A431 cells overexpressing EGFR assessed as cell growth inhibition measured after 72 hrs by MTT assay; assay type: functional
# [15] = tested on: BT-474; experiment: Potency index, ratio of gefitinib IC50 to test compound IC50 for antiproliferative activity against human BT474 cells overexpressing HER2 assessed as cell growth inhibition measured after 72 hrs by MTT assay; assay type: functional
# [16] = tested on: Calu-3; experiment: Potency index, ratio of gefitinib IC50 to test compound IC50 for antiproliferative activity against human Calu3 cells overexpressing HER2 assessed as cell growth inhibition measured after 72 hrs by MTT assay; assay type: functional
# [17] = tested on: NCI-N87; experiment: Potency index, ratio of erlotinib IC50 to test compound IC50 for antiproliferative activity against human NCI-N87 cells overexpressing HER2 assessed as cell growth inhibition measured after 72 hrs by MTT assay; assay type: functional
# [18] = tested on: A-431; experiment: Potency index, ratio of erlotinib IC50 to test compound IC50 for antiproliferative activity against human A431 cells overexpressing EGFR assessed as cell growth inhibition measured after 72 hrs by MTT assay; assay type: functional
# [19] = tested on: BT-474; experiment: Potency index, ratio of erlotinib IC50 to test compound IC50 for antiproliferative activity against human BT474 cells overexpressing HER2 assessed as cell growth inhibition measured after 72 hrs by MTT assay; assay type: functional
# [20] = tested on: Calu-3; experiment: Potency index, ratio of erlotinib IC50 to test compound IC50 for antiproliferative activity against human Calu3 cells overexpressing HER2 assessed as cell growth inhibition measured after 72 hrs by MTT assay; assay type: functional
# T1 sequence (P00533 whole entry): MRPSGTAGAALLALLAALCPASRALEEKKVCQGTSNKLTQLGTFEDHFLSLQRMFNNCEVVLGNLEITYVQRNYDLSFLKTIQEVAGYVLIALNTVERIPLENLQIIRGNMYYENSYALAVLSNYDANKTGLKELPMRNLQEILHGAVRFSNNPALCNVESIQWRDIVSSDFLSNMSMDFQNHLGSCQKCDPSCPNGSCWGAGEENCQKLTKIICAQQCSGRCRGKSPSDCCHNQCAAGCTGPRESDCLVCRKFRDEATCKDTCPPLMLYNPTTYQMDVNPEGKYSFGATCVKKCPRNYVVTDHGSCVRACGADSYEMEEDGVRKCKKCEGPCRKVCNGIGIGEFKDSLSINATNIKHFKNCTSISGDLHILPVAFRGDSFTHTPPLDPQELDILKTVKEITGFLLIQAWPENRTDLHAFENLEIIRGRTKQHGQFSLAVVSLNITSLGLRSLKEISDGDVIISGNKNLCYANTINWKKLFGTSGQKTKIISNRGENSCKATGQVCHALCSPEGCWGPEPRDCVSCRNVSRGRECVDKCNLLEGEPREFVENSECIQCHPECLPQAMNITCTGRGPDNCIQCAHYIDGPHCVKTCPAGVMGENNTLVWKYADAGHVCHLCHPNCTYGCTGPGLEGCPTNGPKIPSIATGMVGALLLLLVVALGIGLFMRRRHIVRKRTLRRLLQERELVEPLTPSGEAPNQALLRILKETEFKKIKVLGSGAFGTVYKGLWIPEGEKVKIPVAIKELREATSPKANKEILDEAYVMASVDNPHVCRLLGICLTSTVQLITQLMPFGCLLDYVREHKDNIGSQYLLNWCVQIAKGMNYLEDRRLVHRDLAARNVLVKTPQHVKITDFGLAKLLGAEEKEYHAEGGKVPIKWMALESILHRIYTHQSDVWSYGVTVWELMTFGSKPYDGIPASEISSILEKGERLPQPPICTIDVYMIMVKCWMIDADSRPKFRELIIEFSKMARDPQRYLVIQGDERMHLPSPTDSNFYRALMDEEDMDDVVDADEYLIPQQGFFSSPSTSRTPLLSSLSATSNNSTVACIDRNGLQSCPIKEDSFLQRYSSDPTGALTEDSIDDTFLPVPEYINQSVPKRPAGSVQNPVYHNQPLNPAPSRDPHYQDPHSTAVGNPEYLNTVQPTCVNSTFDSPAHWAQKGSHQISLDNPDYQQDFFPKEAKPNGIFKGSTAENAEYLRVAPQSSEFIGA
# Receptor tyrosine-protein kinase erbB-2, sequence (P04626 whole entry): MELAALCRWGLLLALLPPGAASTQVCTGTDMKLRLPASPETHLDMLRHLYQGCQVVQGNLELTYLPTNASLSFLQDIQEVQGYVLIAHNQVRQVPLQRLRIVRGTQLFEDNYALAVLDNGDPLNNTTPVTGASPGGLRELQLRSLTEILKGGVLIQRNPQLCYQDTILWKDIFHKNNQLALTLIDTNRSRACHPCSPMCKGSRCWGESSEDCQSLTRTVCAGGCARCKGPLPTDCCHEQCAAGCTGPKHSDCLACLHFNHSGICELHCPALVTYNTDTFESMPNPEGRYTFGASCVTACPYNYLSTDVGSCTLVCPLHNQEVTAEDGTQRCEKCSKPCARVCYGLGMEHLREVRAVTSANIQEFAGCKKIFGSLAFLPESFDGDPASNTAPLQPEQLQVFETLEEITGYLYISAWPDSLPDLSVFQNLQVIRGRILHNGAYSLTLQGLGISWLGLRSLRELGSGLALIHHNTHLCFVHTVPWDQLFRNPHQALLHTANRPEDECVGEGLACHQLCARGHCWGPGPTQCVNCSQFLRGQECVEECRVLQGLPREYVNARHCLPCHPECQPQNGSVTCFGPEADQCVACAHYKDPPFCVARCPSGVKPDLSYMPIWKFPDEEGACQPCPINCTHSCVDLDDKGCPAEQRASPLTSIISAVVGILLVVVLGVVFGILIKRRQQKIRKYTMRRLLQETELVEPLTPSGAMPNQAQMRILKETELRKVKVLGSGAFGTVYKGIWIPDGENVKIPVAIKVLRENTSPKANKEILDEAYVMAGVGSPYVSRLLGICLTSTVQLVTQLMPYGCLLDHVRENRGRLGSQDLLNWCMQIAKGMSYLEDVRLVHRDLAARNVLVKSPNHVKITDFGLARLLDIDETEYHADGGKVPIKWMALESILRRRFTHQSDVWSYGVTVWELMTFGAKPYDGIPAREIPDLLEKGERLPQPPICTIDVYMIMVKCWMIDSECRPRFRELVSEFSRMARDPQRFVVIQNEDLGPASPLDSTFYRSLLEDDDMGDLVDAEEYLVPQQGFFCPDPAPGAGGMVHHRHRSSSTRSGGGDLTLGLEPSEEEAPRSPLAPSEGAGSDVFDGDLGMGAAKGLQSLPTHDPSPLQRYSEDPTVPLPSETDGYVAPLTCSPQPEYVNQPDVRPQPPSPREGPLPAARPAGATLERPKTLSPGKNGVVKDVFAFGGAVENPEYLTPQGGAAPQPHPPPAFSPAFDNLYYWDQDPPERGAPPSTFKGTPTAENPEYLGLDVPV
smiles,measurement,setting,value
O=C(/C=C/CN1CCOCC1)N1CCOc2cc3ncnc(Nc4ccc(OCc5cccc(F)c5)c(Cl)c4)c3cc21,IC50,[1],11 nM
same,IC50,[2],4350 nM
same,IC50,[3],127 nM
same,IC50,[4],15 nM
same,IC50,[5],37 nM
same,IC50,[6],12 nM
same,IC50,[7],7 nM
same,IC50,[8],12 nM
same,Ratio IC50,[9],2.5 - 28.3
same,Ratio IC50,[10],2.5 - 28.3
same,Ratio IC50,[11],2.5 - 28.3
same,Ratio IC50,[12],2.5 - 28.3
same,Ratio IC50,[13],4.3 - 26.6
same,Ratio IC50,[14],4.3 - 26.6
same,Ratio IC50,[15],4.3 - 26.6
same,Ratio IC50,[16],4.3 - 26.6
same,Ratio IC50,[17],>5.9 - 909
same,Ratio IC50,[18],>5.9 - 909
same,Ratio IC50,[19],>5.9 - 909
same,Ratio IC50,[20],>5.9 - 909
